Experimental data: patent US20240000749A1, “SOLID FORMULATION” (Janssen Pharmaceuticals, Inc., priority 2020, published 2024)
Values after ≈ are worked out from the molar mass of the structure shown. Read-outs that look alike come from different tables or passages of the source.

Tests used:
Format in all cases: physicochemical
[1] = In vitro 2-phase (SGF/FaSSIF) miniaturized dissolution of solid dispersion films; conditions: SGF-FaSSIF, 37° C.
Method: In vitro, 2-phase (SGF/FaSSIF) miniaturized dissolution was performed, where the amount of dissolved API was monitored as a function of time. Before starting the dissolution assay, the films were stored at room temperature, for one day for the first screen and for 3 days for the second screen. By doing so, most of the residual solvent was evaporated. Actual dissolution experiments were performed in 96 1 mL glass vials using the Hamilton STAR plus liquid handling platform for both sampling and sample preparation. Before addition to the films, the media was preheated to 37° C. 300 μL of preheated SGF (37° C., pH 1.3) was then added to the solid dispersions. After 15 minutes of incubation in SGF, 600 μL of preheated concentrated FaSSIF (37° C., pH 10.5) was added to the samples. The addition of this concentrated FaSSIF to SGF results in a medium with a similar composition to the typical FaSSIF medium used in 1-phase dissolution studies. At predetermined time intervals (11, 24, 34, 49, 79, 139 minutes), aliquots were withdrawn from the dissolution media and filtered through a 0.45 μm GHP membrane filter. Subsequently, the filtered solutions were quantitatively diluted with N-methyl pyrrolidone (NMP) to prevent possible precipitation. The amount of dissolved API was determined by UPLC/UV-Vis analysis. Experiments were performed in duplicate for each formulation per screen. […]

[2] = Stability of API, SD1 powder and 10 mg SD1 tablets in HDPE bottles; parameters: key to Appearance: “T1”: white powder; “T2”: white or off white round tablet; conditions: Table 6
Method: Stability of the API, SD1 powder as well as the tablets (10 mg strength) comprising SD1 was tested by placing the tablets in High-density polyethylene (HDPE) bottles under stressed conditions as described in column 2 of Table 6.

[3] = Stability of API, SD2 powder and 10 mg SD2 tablets in HDPE bottles; parameters: key to Appearance: “T1”: white powder; “T2”: white or off white round tablet; conditions: Table 8
Method: Stability of the API, SD2 as well as the tablet (10 mg strength) comprising SD2 was tested by placing the tablets in HDPE bottles under stressed conditions as described in column 2 of Table 7.

[4] = Approximate solubility screening in organic solvents at ambient temperature; conditions: organic solvent or mixture, thermodynamic from solid, read-out: S (solubility)
From the text: To screen appropriate solvent for spray drying, approximate solubility of starting material was estimated in different organic solvents at ambient temperature.

[5] = Equilibrium solubility determined by UPLC

final release of the total amount of API present in the films ([1]; first screen): approximately 9%
final release of the total amount of API present in the films ([1]; second screen): approximately 9%
Appearance ([2]; 40° C./75% RH (closed), 1 M): T1
Purity (%) ([2]; 40° C./75% RH (closed), 1 M): 98.96%
Total impurity (%) ([2]; 40° C./75% RH (closed), 1 M): 1.04%
Appearance ([2]; 40° C./75% RH (closed), 2 M): T1
Purity (%) ([2]; 40° C./75% RH (closed), 2 M): 98.94%
Total impurity (%) ([2]; 40° C./75% RH (closed), 2 M): 1.06%
Appearance ([2]; 40° C./75% RH (closed), 2 W): T1
Purity (%) ([2]; 40° C./75% RH (closed), 2 W): 98.95%
Total impurity (%) ([2]; 40° C./75% RH (closed), 2 W): 1.05%
Appearance ([2]; 40° C./75% RH (closed), 3 M): T1
Purity (%) ([2]; 40° C./75% RH (closed), 3 M): 98.95%
Total impurity (%) ([2]; 40° C./75% RH (closed), 3 M): 1.05%
Appearance ([2]; 40° C./75% RH (open), 1 M): T1
Purity (%) ([2]; 40° C./75% RH (open), 1 M): 98.94%
Total impurity (%) ([2]; 40° C./75% RH (open), 1 M): 1.06%
Appearance ([2]; 40° C./75% RH (open), 2 M): T1
Purity (%) ([2]; 40° C./75% RH (open), 2 M): 98.96%
Total impurity (%) ([2]; 40° C./75% RH (open), 2 M): 1.04%
Appearance ([2]; 40° C./75% RH (open), 2 W): T1
Purity (%) ([2]; 40° C./75% RH (open), 2 W): 98.95%
Total impurity (%) ([2]; 40° C./75% RH (open), 2 W): 1.05%
Appearance ([2]; 40° C./75% RH (open), 3 M): T1
Purity (%) ([2]; 40° C./75% RH (open), 3 M): 98.96%
Total impurity (%) ([2]; 40° C./75% RH (open), 3 M): 1.04%
Appearance ([3]; 40° C./75% RH (closed), 1 M): T1
Purity (%) ([3]; 40° C./75% RH (closed), 1 M): 98.96%
Total impurity (%) ([3]; 40° C./75% RH (closed), 1 M): 1.04%
Appearance ([3]; 40° C./75% RH (closed), 2 M): T1
Purity (%) ([3]; 40° C./75% RH (closed), 2 M): 98.94%
Total impurity (%) ([3]; 40° C./75% RH (closed), 2 M): 1.05%
Appearance ([3]; 40° C./75% RH (closed), 2 W): T1
Purity (%) ([3]; 40° C./75% RH (closed), 2 W): 98.95%
Total impurity (%) ([3]; 40° C./75% RH (closed), 2 W): 1.05%
Appearance ([3]; 40° C./75% RH (closed), 3 M): T1
Purity (%) ([3]; 40° C./75% RH (closed), 3 M): 98.95%
Total impurity (%) ([3]; 40° C./75% RH (closed), 3 M): 1.05%
Appearance ([3]; 40° C./75% RH (open), 1 M): T1
Purity (%) ([3]; 40° C./75% RH (open), 1 M): 98.94%
Total impurity (%) ([3]; 40° C./75% RH (open), 1 M): 1.04%
Appearance ([3]; 40° C./75% RH (open), 2 M): T1
Purity (%) ([3]; 40° C./75% RH (open), 2 M): 98.96%
Total impurity (%) ([3]; 40° C./75% RH (open), 2 M): 1.04%
Appearance ([3]; 40° C./75% RH (open), 2 W): T1
Purity (%) ([3]; 40° C./75% RH (open), 2 W): 98.95%
Total impurity (%) ([3]; 40° C./75% RH (open), 2 W): 1.06%
Appearance ([3]; 40° C./75% RH (open), 3 M): T1
Purity (%) ([3]; 40° C./75% RH (open), 3 M): 98.96%
Total impurity (%) ([3]; 40° C./75% RH (open), 3 M): 1.05%
solubility ([4]; Acetone/EtOH (1/1, v/v)): > 100 mg/mL
solubility ([4]; Acetone/EtOH (2/1, v/v)): > 100 mg/mL
solubility ([4]; Acetone/H2O (9/1, v/v)): > 100 mg/mL
solubility ([4]; Acetone/MeOH (2/1, v/v)): > 100 mg/mL
solubility ([4]; EtOH/H2O (9/1, v/v), HPMC E5 added into co-solvent system directly): 10 to 12.5 mg/mL (≈ 17.2 to 21.4 mM)
solubility ([4]; MeOH): 42 mg/mL (≈ 72 mM)
solubility ([4]; MeOH/DCM (1/1, v/v)): > 100 mg/mL
solubility thermodynamic ([5]; MeOH/dichloromethane (1/1, organic solvent or mixture, thermodynamic from solid), MeOH/dichloromethane (DCM) (1/1, v/v)): 317 mg/mL (≈ 544 mM)
solubility thermodynamic ([5]; organic solvent or mixture, thermodynamic from solid, MeOH): 42 mg/mL (≈ 72 mM)
SMILES: COc1cc(NC(C(=O)c2c[nH]c3ccc(OC(F)(F)F)cc23)c2ccc(Cl)cc2OC)cc(S(C)(=O)=O)c1 (centres unmarked) [API]
